Values quoted from earlier work, collected in publication PMC6329039 (Molecular Pain, 2019).

Tested on: STAT3
Details: thermal shift assays ref 33

CN(CC(=O)N(Cc1ccc(C2CCCCC2)cc1)c1ccc(C(=O)O)c(O)c1)S(=O)(=O)c1c(F)c(F)c(F)c(F)c1F [BP-1–102]
binding to and degradation of STAT3: specifically bind to and induce the degradation of STAT3
